Results as given in US20220071985A1, “QUINOLINE DERIVATIVES FOR USE IN THE TREATMENT OR PREVENTION OF CANCER” (ABIVAX, priority 2018, published 2022).

Columns and labels:
Type in all cases: cell-based
[1] = system: PA1405 cell line (Pancreas); test: CellTiter-Glo cell viability assay, PA1405; settings: Homo sapiens, 168 h, 7 days drug treatment
Description: (§1) All cell lines are hyman primary cell lines cultured in DMEM/F12+10% FBS+supplemental growth factors, at 37° C. with 5% C02, as explained below. The cell lines are from large intestine/colorectum, stomach, liver, lung or pancreas (see table below). • DMEM/F12 (high glucose) (Gibco, Cat #11320033) • FBS (Cat #FND500, ExCell Bio) • CellTiter-Glo® Luminescent Cell Viability Assay (Cat # G7571, Promega. Stored at −20° C.). • 96 wells plate (Cat #3610, Corning) • DMEM/F12 medium (low glucose): 1:1 mixture of DMEM (low glucose) (Gibco, Cat #11885076) and F-12K (Gibco, Cat #21127022)
(§2) 1. Each well of a 96-well plate contains 90 μL of cell suspension with cells. The number of cells to be seeded is determined on the basis of a Cell Density Optimization Assay. 2. All 96-wells plates with cells are placed in an incubator overnight at 37° C. with 5% CO2.
(§3) 3. Dilute ABX464 and add 10 μL/well of ABX464 at the concentrations indicated (see plate map below). The final volume is 100 μL/well.
(§4) 4. Replace the old medium by pre-prepared fresh medium with ABX464 at the same concentrations indicated. The final volume is 100 μL/well.
(§5) 5. Cells are observed under a microscope ensuring the cells treated with vehicle control are in good condition. 6. Add 50 μL of CellTiter-Glo® Reagent to each well. 7. […] Record luminescence using an EnVision Multi Label Reader. […]

[2] = system: LU2511 cell line (Lung); test: CellTiter-Glo cell viability assay, LU2511; settings: Homo sapiens, 168 h, 7 days drug treatment
Description: as §1, §2, §3, §4, §5

[3] = system: PA1266 cell line (Pancreas); test: CellTiter-Glo cell viability assay, PA1266; settings: Homo sapiens, 168 h, 7 days drug treatment
Description: as §1, §2, §3, §4, §5

[4] = system: PA0692 cell line (Pancreas); test: CellTiter-Glo cell viability assay, PA0692; settings: Homo sapiens, 168 h, 7 days drug treatment
Description: as §1, §2, §3, §4, §5

[5] = system: PA3060 cell line (Pancreas); test: CellTiter-Glo cell viability assay, PA3060; settings: Homo sapiens, 168 h, 7 days drug treatment
Description: as §1, §2, §3, §4, §5

[6] = system: CR0205 cell line (Large intestine/Colorectum); test: CellTiter-Glo cell viability assay, CR0205; settings: Homo sapiens, 168 h, 7 days drug treatment
Description: as §1, §2, §3, §4, §5

[7] = system: CR3085 cell line (Large intestine/Colorectum); test: CellTiter-Glo cell viability assay, CR3085; settings: Homo sapiens
Description: as §1
(§6) Two types of cell lines have been tested for the compound 26, namely CR3085 (Large intestine/Colorectum) and GA0060 (stomach), as shown below.
as §2, §3, §4
(§7) 5. Cells are observed under a microscope ensuring the cells treated with vehicle control are in good condition. 6. Add 50 μL of CellTiter-Glo® Reagent to each well. 7. Mix contents for 2 minutes on an orbital shaker to facilitate cell lysis. 8. Allow the plate to incubate at room temperature for 10 minutes to stabilize luminescent signals. 9. Record luminescence using an EnVision Multi Label Reader.
(§8) Data analysis is performed using GraphPad Prism 7.0. To calculate IC50s, a dose-response curve is generated using a nonlinear regression model with a sigmoidal dose response. The formula of surviving rate is shown below, and the IC50s will be automatically generated by GraphPad Prism 7.0.
(§9) LumNone treated-LumMedium control is set as 100%.

[8] = system: CR3150 cell line (Large intestine/Colorectum); test: CellTiter-Glo cell viability assay, CR3150; settings: Homo sapiens, 168 h, 7 days drug treatment
Description: as §1, §2, §3, §4, §5

[9] = system: GA0060 cell line (Stomach); test: CellTiter-Glo cell viability assay, GA0060; settings: Homo sapiens
Description: as §1, §6, §2, §3, §4, §7, §8, §9

[10] = system: LU0387 cell line (Lung); test: CellTiter-Glo cell viability assay, LU0387; settings: Homo sapiens, 168 h, 7 days drug treatment
Description: as §1, §2, §3, §4, §5

[11] = system: LI0612 cell line (Liver); test: CellTiter-Glo cell viability assay, LI0612; settings: Homo sapiens, 168 h, 7 days drug treatment
Description: as §1, §2, §3, §4, §5

[12] = 168 h, CR3085, Large intestine/Colorectum, 7 days drug treatment, CellTiter-Glo
[13] = 168 h, GA0060, Stomach, 7 days drug treatment, CellTiter-Glo

| SMILES | IC50 [1] | IC50 [2] | IC50 [3] | IC50 [4] | IC50 [5] | IC50 [6] | IC50 [7, 12] | IC50 [8] | IC50 [9, 13] | IC50 [10] | IC50 [11] | IC50 ([7]; cell line Large intestine/Colorectum CR3085, restated in text without unit) | IC50 ([9]; cell line stomach GA0060, restated in text without unit) |
| --- | --- | --- | --- | --- | --- | --- | --- | --- | --- | --- | --- | --- | --- |
| FC(F)(F)Oc1ccc(Nc2ccc3cccc(Cl)c3n2)cc1 [ABX464, 8-Chloro-N-(4-(trifluoromethoxy)phenyl)quinolin-2-amine] | 6.2 µM | 7.11 µM | 3.44 µM | 9.63 µM | 3.71 µM | 7.26 µM | 0.08 µM | 0.87 µM | 0.6 µM | 9.49 µM | 4.75 µM | – | – |
| FC(F)(F)c1ccc(Nc2ccc3cccc(Cl)c3n2)nc1 [Comparative compound 26, 8-chloro-N-(5-(trifluoromethyl)pyridin-2-yl)quinolin-2-amine] | – | – | – | – | – | – | 0.17 µM | – | > 10 µM | – | – | 0.17 µM | > 10 µM |
